Our source for the Activity values is ChEMBL document CHEMBL1150095, “Antitumor activity and stereochemistry of acetylenic alcohols from the sponge Cribrochalina vasculum” (1995).

Assay type in all cases: functional
Assay [1] deals with NCI-H522. The assay can be described thus: Antitumor activity against human NCI-H522 cells.
Assay [2] deals with IGROV-1. In words: Antitumor activity against human IGROV1 cells.
Assay [3] concerns IGROV-1. The assay can be described thus: Antitumor activity against human IGROV1 cell xenografted athymic mouse assessed as increase in life span at 50 mg/kg, ip once daily. The settings on record: route intraperitoneal. (A xenograft is tissue or cells of one species grown in another, often human tumour cells in immunodeficient mice.)

Activity calls are given as the source filed them. The rule behind the calls is not given here.

Regarding `C#C[C@@H](O)/C=C/CCCCCCCCCCC(C)CCCC` (some centres undefined), the result in assay [1] and in assay [2] was Active.
`C#C[C@@H](O)/C=C/CCCCCCCCCCCCCCC`: the Activity in assay [3] turned out to be 36.5 days. In addition, the result in assay [1] and in assay [2] was Active.
For `C#C[C@@H](O)/C=C/CCCCCCCCCCCCCCCC`, the result in assay [1] and in assay [2] was Active.
As to `C#C[C@@H](O)/C=C/CCCCCCCCC/C=C\CCCCC(C)C`, the result in assay [1] and in assay [2] was Active.
